# Data as given in article PMC9730523 (Frontiers in Immunology, 2022).
# Key:
# mMC4 [1] = target: T1, mMC4 (Mus musculus, UniProt P56450); assay: cAMP accumulation assay, transfected HEK293A; format: cell-based; settings: HEK293-A, 0.25 h, normalised maximal efficacy at 2μM, percentage of maximal αMSH response, read-out: Top
# T1 construct: host or cells: HEK293A
# Experimental: (§1) HEK293A cells were maintained in DMEM containing 10% fetal calf serum (FCS), 2 mM L-glutamine, 100 U/ml penicillin, and 100 μg/ml streptomycin and kept at 37°C with 5% CO2. […] Compound solutions were prepared in serum-free DMEM containing 10 mM 3-isobutyl-1-methylxanthine (IBMX; Sigma), to inhibit phosphodiesterase activity. […] Optical Density (OD) measurements were converted to cAMP concentration using a standard curve and results were normalized subtracting background signal and calculated as % of forskolin.
# hMC1 [2] = target: T2, hMC1 (Homo sapiens, UniProt Q01726); assay: cAMP accumulation assay, transfected HEK293A; set-up: dose or concentration left out as unconfirmed; settings: HMC1, 0.25 h, read-out: Top
# T2 sequence (Q01726 whole entry): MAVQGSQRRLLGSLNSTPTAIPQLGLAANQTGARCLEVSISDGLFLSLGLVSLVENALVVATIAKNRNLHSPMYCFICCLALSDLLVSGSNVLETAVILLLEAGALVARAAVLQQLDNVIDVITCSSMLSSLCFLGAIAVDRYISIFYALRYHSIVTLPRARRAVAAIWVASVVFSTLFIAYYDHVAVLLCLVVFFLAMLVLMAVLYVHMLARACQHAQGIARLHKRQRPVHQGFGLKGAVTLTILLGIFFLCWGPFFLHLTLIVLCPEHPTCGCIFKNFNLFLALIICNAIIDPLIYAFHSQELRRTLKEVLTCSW
# Experimental: (§2) HEK293A cells were maintained in DMEM containing 10% fetal calf serum (FCS), 2 mM L-glutamine, 100 U/ml penicillin, and 100 μg/ml streptomycin and kept at 37°C with 5% CO2.
# (§3) Twenty-four hours after transfection, cells were serum-starved for 3 hours to reduce and stabilize basal levels of cAMP. Melanocortin agonists were tested using 1/5 serial dilutions to generate concentration response curves starting at 10 or 0.4 µM. Vehicle was used as negative control, and forskolin (3 µM, Tocris Bioscience) as positive control. Compound solutions were prepared in serum-free DMEM containing 10 mM 3-isobutyl-1-methylxanthine (IBMX; Sigma), to inhibit phosphodiesterase activity. […] Optical Density (OD) measurements were converted to cAMP concentration using a standard curve and results were normalized subtracting background signal and calculated as % of forskolin.
# mMC1 [3] = target: T3, mMC1 (Mus musculus, UniProt Q01727); assay: cAMP accumulation assay, transfected HEK293A; set-up: dose or concentration left out as unconfirmed; settings: HEK293-A, 0.25 h, read-out: Top
# T3 sequence (Q01727 whole entry): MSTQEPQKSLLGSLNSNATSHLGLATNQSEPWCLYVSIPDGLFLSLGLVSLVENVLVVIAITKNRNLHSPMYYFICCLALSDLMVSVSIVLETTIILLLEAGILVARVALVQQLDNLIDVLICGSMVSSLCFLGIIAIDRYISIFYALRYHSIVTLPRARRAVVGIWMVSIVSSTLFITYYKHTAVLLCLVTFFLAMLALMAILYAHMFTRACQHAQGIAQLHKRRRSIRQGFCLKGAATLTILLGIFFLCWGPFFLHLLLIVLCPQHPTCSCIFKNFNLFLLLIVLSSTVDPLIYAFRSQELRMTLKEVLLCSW
# Experimental: as §2, §3
# hMC4 [4] = target: T4, hMC4 (Homo sapiens, UniProt P32245); assay: cAMP accumulation assay, transfected HEK293A; format: cell-based; settings: HEK293-A, 0.25 h, normalised maximal efficacy at 2μM, percentage of maximal αMSH response, read-out: Top
# T4 construct: host or cells: HEK293A
# T4 sequence (P32245 whole entry): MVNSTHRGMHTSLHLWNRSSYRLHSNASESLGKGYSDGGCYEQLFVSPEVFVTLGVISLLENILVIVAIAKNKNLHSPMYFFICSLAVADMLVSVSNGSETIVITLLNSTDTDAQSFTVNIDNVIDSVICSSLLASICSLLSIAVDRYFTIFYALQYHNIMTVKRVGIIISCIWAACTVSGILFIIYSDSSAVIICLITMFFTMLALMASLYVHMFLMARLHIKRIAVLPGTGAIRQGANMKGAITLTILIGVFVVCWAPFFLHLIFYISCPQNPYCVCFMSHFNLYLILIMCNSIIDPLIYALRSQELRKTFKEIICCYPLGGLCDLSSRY
# Experimental: as §1
# mMC5 [5] = target: T5, mMC5 (Mus musculus, UniProt P41149); assay: ERK1/2 phosphorylation assay, transfected HEK293A; format: cell-based; set-up: host or cells: HEK293A; settings: HEK293-A, 5 min; p-ERK1/2, mMC5; normalised maximal efficacy at 2μM, percentage of maximal αMSH response; read-out: Top
# T5 sequence (P41149 whole entry): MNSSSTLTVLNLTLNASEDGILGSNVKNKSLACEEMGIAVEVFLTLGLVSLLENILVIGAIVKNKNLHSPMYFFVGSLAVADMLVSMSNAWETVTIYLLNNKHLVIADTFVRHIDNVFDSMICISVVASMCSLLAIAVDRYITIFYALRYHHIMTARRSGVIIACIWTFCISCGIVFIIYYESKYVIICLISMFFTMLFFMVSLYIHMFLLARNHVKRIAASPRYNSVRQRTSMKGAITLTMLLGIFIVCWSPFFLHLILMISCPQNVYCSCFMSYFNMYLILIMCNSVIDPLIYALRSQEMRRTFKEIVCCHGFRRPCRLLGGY
# Experimental: as §2
# (§4) Twenty-four hours after transfection, cells were serum-starved for 3 hours to reduce and stabilize basal levels of phospho-ERK1/2. Concentration response curves were generated by 1/5 serial dilutions as above. Drug solutions were prepared in serum-free DMEM. Cells were stimulated for 5 min with the different compounds and lysed immediately with ice-cold extraction buffer supplied in the ERK1/2 (pT202/Y204) SimpleStep ELISA Kit (Abcam ab176640; Cambridge, UK), according to manufacturer instructions. Total protein was also quantified by Bradford to normalize p-ERK1/2 response.
# mMC1 [6] = target: T3, mMC1; assay: ERK1/2 phosphorylation assay, transfected HEK293A; format: cell-based; set-up: host or cells: HEK293A; settings: HEK293-A, 5 min; p-ERK1/2, mMC1; normalised maximal efficacy at 2μM, percentage of maximal αMSH response; read-out: Top
# Experimental: as §2, §4
# hMC4 [7] = target: T4, hMC4; assay: ERK1/2 phosphorylation assay, transfected HEK293A; format: cell-based; settings: HEK293-A, 5 min; p-ERK1/2, hMC4; normalised maximal efficacy at 2μM, percentage of maximal αMSH response; read-out: Top
# Experimental: (§5) HEK293A cells were maintained in DMEM containing 10% fetal calf serum (FCS), 2 mM L-glutamine, 100 U/ml penicillin, and 100 μg/ml streptomycin and kept at 37°C with 5% CO2. […] Total protein was also quantified by Bradford to normalize p-ERK1/2 response.
# hMC3 [8] = target: T6, hMC3 (Homo sapiens, UniProt P41968); assay: cAMP accumulation assay, transfected HEK293A; set-up: dose or concentration left out as unconfirmed; settings: HMC3, 0.25 h, read-out: Top
# T6 sequence (P41968 whole entry): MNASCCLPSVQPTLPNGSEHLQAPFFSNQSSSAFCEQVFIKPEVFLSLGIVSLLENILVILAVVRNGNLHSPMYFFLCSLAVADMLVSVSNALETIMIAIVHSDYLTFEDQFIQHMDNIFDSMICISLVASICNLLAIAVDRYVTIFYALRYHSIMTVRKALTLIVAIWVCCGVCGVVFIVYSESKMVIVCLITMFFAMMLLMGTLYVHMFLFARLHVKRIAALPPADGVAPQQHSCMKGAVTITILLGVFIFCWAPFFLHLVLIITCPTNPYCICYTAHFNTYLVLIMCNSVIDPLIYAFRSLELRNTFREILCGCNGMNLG
# Experimental: as §2, §3
# mMC5 [9] = target: T5, mMC5; assay: cAMP accumulation assay, transfected HEK293A; set-up: dose or concentration left out as unconfirmed; settings: HEK293-A, 0.25 h, read-out: Top
# Experimental: as §2, §3
# hMC1 [10] = target: T2, hMC1; assay: ERK1/2 phosphorylation assay, transfected HEK293A; format: cell-based; set-up: host or cells: HEK293A; settings: 5 min; p-ERK1/2, hMC1; normalised maximal efficacy at 2μM, percentage of maximal αMSH response; read-out: Top
# Experimental: as §2, §4
# hMC5 [11] = target: T7, hMC5 (Homo sapiens, UniProt P33032); assay: cAMP accumulation assay, transfected HEK293A; set-up: dose or concentration left out as unconfirmed; settings: HEK293-A, 0.25 h, read-out: Top
# T7 sequence (P33032 whole entry): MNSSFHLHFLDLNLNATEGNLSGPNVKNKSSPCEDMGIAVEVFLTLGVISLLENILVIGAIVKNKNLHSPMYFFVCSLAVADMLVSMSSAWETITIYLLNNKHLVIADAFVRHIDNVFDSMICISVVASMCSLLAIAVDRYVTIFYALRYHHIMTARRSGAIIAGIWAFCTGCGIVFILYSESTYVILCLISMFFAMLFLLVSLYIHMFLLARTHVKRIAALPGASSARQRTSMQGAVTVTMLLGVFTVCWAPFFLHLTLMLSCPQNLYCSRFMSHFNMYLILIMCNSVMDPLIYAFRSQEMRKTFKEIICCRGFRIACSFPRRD
# Experimental: as §2, §3
# hMC3 [12] = target: T6, hMC3; assay: ERK1/2 phosphorylation assay, transfected HEK293A; format: cell-based; set-up: host or cells: HEK293A; settings: 5 min; p-ERK1/2, hMC3; normalised maximal efficacy at 2μM, percentage of maximal αMSH response; read-out: Top
# Experimental: as §2, §4
# mMC4 [13] = target: T1, mMC4; assay: ERK1/2 phosphorylation assay, transfected HEK293A; format: cell-based; settings: HEK293-A, 5 min; p-ERK1/2, mMC4; normalised maximal efficacy at 2μM, percentage of maximal αMSH response; read-out: Top
# Experimental: as §5
# hMC5 [14] = target: T7, hMC5; assay: ERK1/2 phosphorylation assay, transfected HEK293A; format: cell-based; set-up: host or cells: HEK293A; settings: HEK293-A, 5 min; p-ERK1/2, hMC5; normalised maximal efficacy at 2μM, percentage of maximal αMSH response; read-out: Top
# Experimental: as §2, §4
# [15] = humans, single subcutaneous administration; cited from earlier work
# T1 sequence (P56450 whole entry): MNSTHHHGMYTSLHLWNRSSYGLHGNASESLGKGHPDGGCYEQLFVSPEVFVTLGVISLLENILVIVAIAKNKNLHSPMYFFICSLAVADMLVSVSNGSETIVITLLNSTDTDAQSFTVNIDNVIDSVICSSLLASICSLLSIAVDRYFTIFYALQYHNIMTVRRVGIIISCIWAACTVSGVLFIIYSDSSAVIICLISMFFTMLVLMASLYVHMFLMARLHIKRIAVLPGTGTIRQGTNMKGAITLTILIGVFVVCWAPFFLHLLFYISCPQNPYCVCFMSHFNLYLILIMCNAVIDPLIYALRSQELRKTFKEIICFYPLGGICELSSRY
compound,measurement,setting,value
"CCCC[C@H](NC(C)=O)C(=O)N[C@H]1CCC(=O)NC[C@@H](C(=O)N[C@@H](Cc2c[nH]c3ccccc23)C(N)=O)NC(=O)[C@H](CCCNC(=N)N)NC(=O)[C@@H](Cc2ccccc2)NC(=O)[C@H](Cc2c[nH]cn2)NC1=O [PL8177, Ac-Nle^1-cyclo(Glu^2-L-His^3-D-Phe^4-Arg^5-Dap^6)-Trp^7-NH2]",Emax at 2 µM,mMC4 [1],75.1%
same,Emax,hMC1 [2],112%
same,Emax,mMC1 [3],103%
same,Emax at 2 µM,hMC4 [4],26.5%
same,Emax,mMC5 [5],18.6%
same,Emax,mMC1 [6],99.7%
same,Emax,hMC4 [7],56.1%
same,Emax,hMC3 [8],10.9%
same,Emax,mMC5 [9],14.8%
same,Emax,hMC1 [10],136%
same,Emax,hMC5 [11],38.2%
same,Emax,hMC3 [12],70.1%
same,Emax,mMC4 [13],80.7%
same,Emax,hMC5 [14],62.7%
same,persisting plasma levels after administration,[15],48 h
